Values of other authors, collected in paper PMC9291711, “PLGA-modified Syloid®-based microparticles for the ocular delivery of terconazole: in-vitro and in-vivo investigations” (Drug Delivery, 2022).

Conditions: stated without reference

Pka: 8 | log P: 5.37
Structure (SMILES): CC(C)N1CCN(c2ccc(OCC3COC(Cn4cncn4)(c4ccc(Cl)cc4Cl)O3)cc2)CC1 (centres unmarked) [Terconazole, terconazole]
